Assay results from patent US20120101076A1, “CARBONATE DERIVATIVES FOR THE TREATMENT OF COUGH” (priority 2010, published 2012).

Tests used:
postviral coughing = settings: inhaled, relative to placebo; cited from earlier work
[1] = system: guinea pigs (citric acid-induced cough); assay: citric acid cough challenge in guinea pigs; assay type: in vivo, guinea pig; settings: for percentage (%) of reduction of number of cough efforts / percentage (%) reduction of number of coughs: mean±SEM
Protocol: Evaluation of the activities of Compound Ia and tiotropium bromide in an animal cough challenge model.
Male Dunkin-Hartley guinea pigs (250-350 g, Charles-River, Italy) were acclimatized in cages, (24±0.5° C.) for 1 week after delivery, with free access to water and standard rodent diet. One group of guinea pigs was actively sensitized by an intra-peritoneal injection of ovalbumin (100 mg/kg) followed by a subcutaneous injection of ovalbumin (100 mg/kg). Controls received the vehicle alone (0.9% NaCl).
After the period of acclimatization to laboratory conditions, animals were individually placed in a transparent perspex box (20×10×10 cm, Vetrotecnica, Italy) ventilated with a constant airflow of 400 ml/minute. A tussive agent (citric acid, 0.25 M) was nebulized via a mini-ultrasonic nebulizer (Ugo Basile, Italy). […] The numbers of elicited cough efforts were counted by a blind observer.
All experiments were carried out at the same time of day, starting at 9.00 a.m. Guinea-pigs received Compound Ia (1 mM) or tiotropium bromide (0.3 mM) or their vehicle (distilled water) for 10 minutes by aerosol at least 3 hour before the citric acid challenge (0.25 M; for 10 minute; by aerosol), in order to elicit cough.
Values are presented as mean±SEM. Comparisons among groups were made by one way analysis of variance (ANOVA) and the Student's t-test or the Bonferroni's test when appropriate. A p value of <0.05 was considered significant.

[2] = system: adult nonsmokers with acute viral upper respiratory tract infection; settings: once daily 18 μg by inhalation for 7 days; cited from earlier work
[3] = system: ovalbumin-sensitized guinea-pigs; settings: administered intratracheally; cited from earlier work

For CC(C)[N+]1(C)[C@@H]2CC[C@H]1C[C@@H](OC(=O)C(CO)c1ccccc1)C2 (stereo partly drawn) [ipratropium bromide], the “suppression of subjectively described postviral coughing” value (postviral coughing) is given as “effective”.

For C[N+]1(C)[C@@H]2C[C@@H](OC(=O)C(O)(c3cccs3)c3cccs3)C[C@H]1[C@@H]1O[C@@H]12 [tiotropium bromide], the “number of cough efforts induced by citric acid (statistical significance)” value ([1]; 0.3 mM by aerosol, 3 hours before, both animal groups) was “did not reach a statistical significance”, the “percentage (%) of reduction of number of cough efforts” value ([1]; control animals, 0.3 mM by aerosol, 3 hours before citric acid 0.25 M) was 20.2±9.9% and the “percentage (%) of reduction of number of cough efforts” value ([1]; ovalbumin-sensitized animals, 0.3 mM by aerosol, 3 hours before citric acid 0.25 M) was 28.1±11%. For the same compound, the “cough reflex sensitivity to inhaled capsaicin” value [2] was “capable of inhibiting cough reflex sensitivity” and the “cough elicited by inhalation of citric acid” value [3] was “able to reduce cough”.

In the case of O=C(OC(c1cccc(F)c1)c1cccc(F)c1)O[C@H]1C[N+]2(CC(=O)c3cccs3)CCC1CC2.[Cl-] [Compound Ia], the “number of cough efforts induced by citric acid (statistical significance)” value ([1]; 1 mM by aerosol, 3 hours before citric acid 0.25 M) is reported as “significantly reduced”, the “percentage (%) reduction of number of coughs” value ([1]; control, non-sensitized animals, 1 mM by aerosol, 3 hours before citric acid 0.25 M) is reported as 17.4±6.4% and the “percentage (%) reduction of number of coughs” value ([1]; ovalbumin-sensitized animals, 1 mM by aerosol, 3 hours before citric acid 0.25 M) is reported as 37.2±5.9%.
